# Results taken from PMC5011342, “A high throughput drug screening assay to identify compounds that promote oligodendrocyte differentiation using acutely dissociated and purified oligodendrocyte precursor cells” (BMC Research Notes, 2016).
# Read-outs that look alike come from different tables or passages of the source.
# Key:
# expanded OPCs = experiment: cells; settings: for viability at 0.1 µM / viability at 1 µM / viability at 10 µM: Rattus norvegicus, 72 h
# Procedure, shortened: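 Expanded OPCs seeded at 10,000 cells/well in differentiation media, then exposed to NCC library compounds at 10, 1 and 0.1 µM (quadruplicate, 0.1% DMSO) for three days. Viability read as alamarBlue fluorescence (560/590 nm) after 4 h at 37 °C; tunicamycin 5 ng/ml served as toxicity control.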
# [1] = system: acutely dissociated and purified rat OPCs; experiment: Acute OL differentiation assay (MBP expression/cell, immunofluorescent image quantification); assay type: cell-based; settings: sheet "All OLga data"; for activation at 2 µM / activation at 10 µM / activation at 0.4 µM / activation at 0.08 µM: Rattus norvegicus
# Procedure, shortened: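 Oligodendrocyte precursor cells were enriched from P6-P7 Sprague–Dawley rat brains by immunopanning (RAN-2 and GalC depletion, O4 selection), plated at 5000 cells/well in serum-free, mitogen-free differentiation media on PDL/laminin 96-well view plates, centrifuged at 200×g, and pre-incubated 1–2 h before test compounds were added in quadruplicate. On DIV4, cells were fixed, stained for MBP and DAPI, imaged automatically, and MBP expression per cell was quantified.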
# [2] = read-out: 0.1 µM (% DMSO), alamarBlue viability of expanded OPCs, compound at 0.1 µM, sheet All Tox data
# [3] = read-out: 1 µM (% DMSO), alamarBlue viability of expanded OPCs, compound at 1 µM, sheet All Tox data
# [4] = read-out: 10 µM (% DMSO), alamarBlue viability of expanded OPCs, compound at 10 µM, sheet All Tox data
# [5] = alamarBlue viability of expanded OPCs, compound at 0.1 µM, relative to DMSO control
# [6] = alamarBlue viability of expanded OPCs, compound at 1 µM, relative to DMSO control
# [7] = alamarBlue viability of expanded OPCs, compound at 10 µM, relative to DMSO control
# [8] = 2 uM test compound, relative to quetiapine, read-out: OL differentiation, 2 uM (% Quet)
# [9] = 10 uM test compound, relative to quetiapine, read-out: OL differentiation, 10 uM (% Quet)
# [10] = test compound at 2 uM, MBP expression relative to quetiapine, NCC library screen, read-out: 2 uM (% Quet)
# [11] = test compound at 10 uM, MBP expression relative to quetiapine, NCC library screen, read-out: 10 uM (% Quet)
# [12] = 0.4 uM test compound, relative to quetiapine, read-out: OL differentiation, 0.4 uM (% Quet)
# [13] = read-out: 0.1 µM (% DMSO), alamarBlue viability, NCC library compound at 0.1 µM, sheet "All Tox data"
# [14] = read-out: 1 µM (% DMSO), alamarBlue viability, NCC library compound at 1 µM, sheet "All Tox data"
# [15] = read-out: 10 µM (% DMSO), alamarBlue viability, NCC library compound at 10 µM, sheet "All Tox data"
# [16] = test compound at 2 uM, NCC library screen, relative to quetiapine, read-out: 2 uM (% Quet)
# [17] = test compound at 10 uM, NCC library screen, relative to quetiapine, read-out: 10 uM (% Quet)
smiles,measurement,setting,value
Cc1nccn1CC1CCc2c(c3ccccc3n2C)C1=O (stereo not drawn) [Ondansetron],viability at 0.1 µM,expanded OPCs; [2],92.9%
same,viability at 1 µM,expanded OPCs; [3],92.2%
same,viability at 10 µM,expanded OPCs; [4],102%
same,0.1 µM (% DMSO),expanded OPCs; [5],95.7 % DMSO
same,1 µM (% DMSO),expanded OPCs; [6],92.7 % DMSO
same,10 µM (% DMSO),expanded OPCs; [7],90.9 % DMSO
same,activation at 2 µM,[1]; [8],4.2%
same,activation at 10 µM,[1]; [9],-7.7%
same,activation at 2 µM,[1]; [10],3%
same,activation at 10 µM,[1]; [11],3.5%
CCCCCCCCCCC[C@@H](C[C@@H]1OC(=O)[C@H]1CCCCCC)OC(=O)[C@H](CC(C)C)NC=O [Orlistat],viability at 0.1 µM,expanded OPCs; [2],80.3%
same,viability at 1 µM,expanded OPCs; [3],80.1%
same,viability at 10 µM,expanded OPCs; [4],12.5%
same,activation at 0.4 µM,[1]; [12],4.3%
same,activation at 2 µM,[1]; [8],-43.8%
COc1cc(C)c(Cc2cnc(N)nc2N)cc1OC [Ormetoprim],viability at 0.1 µM,expanded OPCs; [2],101%
same,viability at 1 µM,expanded OPCs; [3],91%
same,viability at 10 µM,expanded OPCs; [4],95.4%
same,activation at 2 µM,[1]; [8],-23.4%
same,activation at 10 µM,[1]; [9],-8.2%
Cc1ncc([N+](=O)[O-])n1CC(O)CCl (stereo not drawn) [Ornidazole],viability at 0.1 µM,expanded OPCs; [13],106%
same,viability at 1 µM,expanded OPCs; [14],91.3%
same,viability at 10 µM,expanded OPCs; [15],82.2%
same,activation at 2 µM,[1]; [8],4.7%
same,activation at 10 µM,[1]; [9],13%
CCN(CC)CC1CCCCN1CC(=O)N1c2ccccc2C(=O)Nc2cccnc21 (stereo not drawn) [Otenzepad],viability at 0.1 µM,expanded OPCs; [13],91.2%
same,viability at 1 µM,expanded OPCs; [14],81.4%
same,viability at 10 µM,expanded OPCs; [15],75.7%
same,activation at 2 µM,[1]; [16],11.2%
same,activation at 10 µM,[1]; [17],13.5%
Cc1onc(-c2ccccc2)c1C(=O)N[C@@H]1C(=O)N2[C@@H]1SC(C)(C)[C@@H]2C(=O)O [Oxacillin],0.1 µM (% DMSO),expanded OPCs; [5],96.9 % DMSO
same,1 µM (% DMSO),expanded OPCs; [6],96.8 % DMSO
same,10 µM (% DMSO),expanded OPCs; [7],93.4 % DMSO
same,activation at 2 µM,[1]; [10],-14.9%
same,activation at 10 µM,[1]; [11],-26.1%
O=C(O)CCc1nc(-c2ccccc2)c(-c2ccccc2)o1 [Oxaprozin],viability at 0.1 µM,expanded OPCs; [2],91.8%
same,viability at 1 µM,expanded OPCs; [3],86.6%
same,viability at 10 µM,expanded OPCs; [4],78%
same,activation at 2 µM,[1]; [8],-15.3%
same,activation at 10 µM,[1]; [9],-15%
NC(=O)N1c2ccccc2CC(=O)c2ccccc21 [Oxcarbazepine],viability at 0.1 µM,expanded OPCs; [2],102%
same,viability at 1 µM,expanded OPCs; [3],92%
same,viability at 10 µM,expanded OPCs; [4],73.5%
same,activation at 2 µM,[1]; [8],-28.9%
same,activation at 10 µM,[1]; [9],-57.8%
Clc1ccc(CO/N=C(\Cn2ccnc2)c2ccc(Cl)cc2Cl)c(Cl)c1 [Oxiconazole],viability at 0.1 µM,expanded OPCs; [2],131%
same,viability at 1 µM,expanded OPCs; [3],195%
same,viability at 10 µM,expanded OPCs; [4],11.7%
same,activation at 0.4 µM,[1]; [12],96.5%
C[C@]12C/C(=C/O)C(=O)C[C@@H]1CC[C@@H]1[C@@H]2CC[C@@]2(C)[C@H]1CC[C@]2(C)O [Oxymetholone],viability at 0.1 µM,expanded OPCs; [2],82.4%
same,viability at 1 µM,expanded OPCs; [3],79.2%
same,viability at 10 µM,expanded OPCs; [4],48.9%
same,activation at 0.4 µM,[1]; [12],-20%
same,activation at 2 µM,[1]; [8],-31.7%
CN1CC[C@]23c4c5ccc(O)c4O[C@H]2c2[nH]c4ccccc4c2C[C@@]3(O)[C@H]1C5 [Oxymorphindole],viability at 0.1 µM,expanded OPCs; [13],85.7%
same,viability at 1 µM,expanded OPCs; [14],54.1%
same,viability at 10 µM,expanded OPCs; [15],12%
same,activation at 0.08 µM,"[1]; test compound at 0.08 uM, NCC library screen, relative to quetiapine, read-out: 0.08 uM (% Quet)",-8.6%
same,activation at 0.4 µM,"[1]; test compound at 0.4 uM, NCC library screen, relative to quetiapine, read-out: 0.4 uM (% Quet)",-51.8%
CC[N+](C)(CC)CCOC(=O)C(O)(c1ccccc1)C1CCCCC1 (stereo not drawn) [Oxyphenonium],viability at 0.1 µM,expanded OPCs; [13],92.5%
same,viability at 1 µM,expanded OPCs; [14],97.2%
same,viability at 10 µM,expanded OPCs; [15],94.9%
same,activation at 2 µM,[1]; [16],-6.1%
same,activation at 10 µM,[1]; [17],36.4%
CN(C)[C@@H]1C(O)=C(C(N)=O)C(=O)[C@@]2(O)C(O)=C3C(=O)c4c(O)cccc4[C@@](C)(O)[C@H]3[C@H](O)[C@@H]12 [Oxytetracycline],0.1 µM (% DMSO),expanded OPCs; [5],98.0 % DMSO
same,1 µM (% DMSO),expanded OPCs; [6],97.7 % DMSO
same,10 µM (% DMSO),expanded OPCs; [7],93.6 % DMSO
same,activation at 2 µM,[1]; [10],-42.7%
same,activation at 10 µM,[1]; [11],-36.7%
O=C(O)/C=C/c1ccc(Cn2ccnc2)cc1 [Ozagrel],viability at 0.1 µM,expanded OPCs; [2],82.8%
same,viability at 1 µM,expanded OPCs; [3],85.9%
same,viability at 10 µM,expanded OPCs; [4],92.2%
same,activation at 2 µM,[1]; [8],-6.1%
same,activation at 10 µM,[1]; [9],-20.6%
Cc1sc(N)c(C(=O)c2cccc(C(F)(F)F)c2)c1C [PD 81723],0.1 µM (% DMSO),"expanded OPCs; alamarBlue viability, NCC library compound at 0.1 µM, sheet ""All Tox data""",90.2 % DMSO
same,1 µM (% DMSO),"expanded OPCs; alamarBlue viability, NCC library compound at 1 µM, sheet ""All Tox data""",90.8 % DMSO
same,10 µM (% DMSO),"expanded OPCs; alamarBlue viability, NCC library compound at 10 µM, sheet ""All Tox data""",57.3 % DMSO
same,0.4 uM (% Quet),"[1]; test compound at 0.4 uM, NCC library screen, relative to quetiapine",4.2 % Quet
same,2 uM (% Quet),"[1]; test compound at 2 uM, NCC library screen, relative to quetiapine",-21.8 % Quet
O=C1c2cccc3c2[C@H](CCC3)CN1[C@@H]1CN2CCC1CC2 [Palonosetron],viability at 0.1 µM,expanded OPCs; [13],93%
same,viability at 1 µM,expanded OPCs; [14],92.4%
same,viability at 10 µM,expanded OPCs; [15],72.1%
same,activation at 2 µM,[1]; [16],13.3%
same,activation at 10 µM,[1]; [17],29.7%
CC(=O)O[C@H]1C[C@@H]2CC[C@@H]3[C@H](CC[C@@]4(C)[C@H]3C[C@H]([N+]3(C)CCCCC3)[C@@H]4OC(C)=O)[C@@]2(C)C[C@@H]1[N+]1(C)CCCCC1 [Pancuronium],viability at 0.1 µM,expanded OPCs; [2],83.3%
same,viability at 1 µM,expanded OPCs; [3],83.2%
same,viability at 10 µM,expanded OPCs; [4],88%
same,activation at 2 µM,[1]; [8],14.7%
same,activation at 10 µM,[1]; [9],8.2%
COc1ccnc(C[S+]([O-])c2nc3ccc(OC(F)F)cc3[nH]2)c1OC (stereo not drawn) [Pantoprazole],viability at 0.1 µM,expanded OPCs; [2],94.1%
same,viability at 1 µM,expanded OPCs; [3],91.1%
same,viability at 10 µM,expanded OPCs; [4],95.2%
same,activation at 2 µM,[1]; [8],8.8%
same,activation at 10 µM,[1]; [9],-5.3%
CCC(=O)NS(=O)(=O)c1ccc(-c2c(-c3ccccc3)noc2C)cc1 [Parecoxib],viability at 0.1 µM,expanded OPCs; [13],90.9%
same,viability at 1 µM,expanded OPCs; [14],87.2%
same,viability at 10 µM,expanded OPCs; [15],95.5%
same,activation at 2 µM,[1]; [16],-1.5%
same,activation at 10 µM,[1]; [17],-3%
Fc1ccc([C@@H]2CCNC[C@H]2COc2ccc3c(c2)OCO3)cc1 [Paroxetine],viability at 0.1 µM,expanded OPCs; [2],70.7%
same,viability at 1 µM,expanded OPCs; [3],38.3%
same,viability at 10 µM,expanded OPCs; [4],11.7%
same,0.1 µM (% DMSO),expanded OPCs; [5],63.3 % DMSO
same,1 µM (% DMSO),expanded OPCs; [6],27.9 % DMSO
same,10 µM (% DMSO),expanded OPCs; [7],8.3 % DMSO
same,activation at 0.08 µM,"[1]; 0.08 uM test compound, relative to quetiapine, read-out: OL differentiation, 0.08 uM (% Quet)",16.2%
same,activation at 0.4 µM,[1]; [12],-6.1%
same,activation at 0.08 µM,"[1]; test compound at 0.08 uM, MBP expression relative to quetiapine, NCC library screen, read-out: 0.08 uM (% Quet)",-4.5%
same,activation at 0.4 µM,"[1]; test compound at 0.4 uM, MBP expression relative to quetiapine, NCC library screen, read-out: 0.4 uM (% Quet)",-15.9%
C[C@H]1COc2c(C3(N)CC3)c(F)cc3c(=O)c(C(=O)O)cn1c23 [Pazufloxacin],viability at 0.1 µM,expanded OPCs; [2],95.3%
same,viability at 1 µM,expanded OPCs; [3],98%
same,viability at 10 µM,expanded OPCs; [4],104%
same,activation at 2 µM,[1]; [8],1.9%
same,activation at 10 µM,[1]; [9],-11%
